Results as given in patent US20150374673A1, “Combination Therapy for the Treatment of Nosocomial Pneumonia” (priority 2013, published 2015).
Where two headings read alike, the source gives them in different places. Blank lines part the entries; values can stand above or below the molecule they belong to.

Columns and labels:
Experiment in all cases: Initial MIC, microbroth dilution (CLSI), avibactam 4 mg/L
Assay type in all cases: cell-based
E. faecalis = settings: Enterococcus faecalis, read-out: MIC
Text: (§1) All MIC determinations including those performed in the checkerboard assay were done in cation-adjusted Mueller-Hinton broth (purchased from Becton Dickinson, Oxford UK). […]

S. aureus = settings: Staphylococcus aureus, read-out: MIC
Text: as §1

P. aeruginosa = test system: P. aeruginosa
Description: (§2) All MIC determinations including those performed in the checkerboard assay were done in cation-adjusted Mueller-Hinton broth (purchased from Becton Dickinson, Oxford UK).
(§3) Initial MIC data were determined by microbroth dilution methods as recommended by CLSI (2012b). Checkerboards were made in accordance with the method given by Pillai et. al., ? Antimicrobial Combinations in Antibiotics, LABORATORY MEDICINE (Lorian Ed., 3rd Ed. (2003)) p. 365-440 as per standard microbroth dilution tests but with agents in combination. […] A final avibactam concentration of 4 mg/L was used throughout the study. Antibacterial agents were combined into microtitre plates using the Evolution III liquid handling system.

K. pneumoniae = test system: K. pneumoniae
Description: as §2, §3

E. cloacae = test system: E. cloacae
Text: as §1

E. coli = test system: E. coli
Text: as §1

[1] = isolate 25 E. faecalis Basal MICs
[2] = isolate 26 E. faecalis Basal MICs
[3] = isolate 27 E. faecalis Basal MICs
[4] = isolate 22 S. aureus Basal MICs
[5] = isolate 23 S. aureus Basal MICs, Penicillinase+
[6] = isolate 24 S. aureus Basal MICs, Penicillinase+

MIC (E. faecalis; [1]): 1 µg/mL | MIC (E. faecalis; [2]): 2 µg/mL | MIC (E. faecalis; [3]): 2 µg/mL | MIC (S. aureus; [4]): 2 µg/mL | MIC (S. aureus; [5]): 2 µg/mL | MIC (S. aureus; [6]): 2 µg/mL
Molecule: CC(=O)NC[C@H]1CN(c2ccc(N3CCOCC3)c(F)c2)C(=O)O1 [Linezolid]

Molecule: C[C@H]1COc2c(N3CCN(C)CC3)c(F)cc3c(=O)c(C(=O)O)cn1c23 [Levofloxacin]
MIC (P. aeruginosa; Pseudomonas aeruginosa, isolate 16 P. aeruginosa Basal MICs, read-out: MIC): 1 µg/mL | MIC (P. aeruginosa; Pseudomonas aeruginosa, isolate 17 P. aeruginosa Derepressed AmpC, read-out: MIC): 8 µg/mL | MIC (P. aeruginosa; Pseudomonas aeruginosa, isolate 18 P. aeruginosa Derepressed AmpC, read-out: MIC): 0.12 µg/mL | MIC (P. aeruginosa; Pseudomonas aeruginosa, isolate 19 P. aeruginosa PER, read-out: MIC): 16 µg/mL | MIC (P. aeruginosa; Pseudomonas aeruginosa, isolate 20 P. aeruginosa KPC-2, read-out: MIC): 16 µg/mL | MIC (P. aeruginosa; Pseudomonas aeruginosa, isolate 21 P. aeruginosa KPC-2, read-out: MIC): 32 µg/mL | MIC (K. pneumoniae; Klebsiella pneumoniae, isolate 9 K. pneumoniae Basal MICs, read-out: MIC): 0.03 µg/mL | MIC (K. pneumoniae; Klebsiella pneumoniae, isolate 10 K. pneumoniae TEM-4, read-out: MIC): 0.03 µg/mL | MIC (K. pneumoniae; Klebsiella pneumoniae, isolate 11 K. pneumoniae CTX-M-15, read-out: MIC): 16 µg/mL | MIC (K. pneumoniae; Klebsiella pneumoniae, isolate 12 K. pneumoniae SHV-12, read-out: MIC): 0.03 µg/mL | MIC (K. pneumoniae; Klebsiella pneumoniae, isolate 13 K. pneumoniae KPC-3, read-out: MIC): 0.06 µg/mL | MIC (K. pneumoniae; Klebsiella pneumoniae, isolate 14 K. pneumoniae KPC-3, read-out: MIC): 16 µg/mL | MIC (K. pneumoniae; Klebsiella pneumoniae, isolate 15 K. pneumoniae KPC-2, read-out: MIC): 0.06 µg/mL | MIC (E. faecalis; [1]): 0.5 µg/mL | MIC (E. faecalis; [2]): 1 µg/mL | MIC (E. faecalis; [3]): 1 µg/mL | MIC (E. cloacae; Enterobacter cloacae, isolate 1 E. cloacae Basal MICs, read-out: MIC): 0.03 µg/mL | MIC (E. cloacae; Enterobacter cloacae, isolate 2 E. cloacae Derepressed AmpC, read-out: MIC): 0.5 µg/mL | MIC (E. cloacae; Enterobacter cloacae, isolate 3 E. cloacae Derepressed AmpC, read-out: MIC): 0.06 µg/mL | MIC (S. aureus; [4]): 0.25 µg/mL | MIC (S. aureus; [5]): 0.12 µg/mL | MIC (S. aureus; [6]): 0.12 µg/mL | MIC (E. coli; Escherichia coli, isolate 5 E. coli CTX-M-15, read-out: MIC): 16 µg/mL | MIC (E. coli; Escherichia coli, isolate 6 E. coli TEM-4, read-out: MIC): 0.015 µg/mL | MIC (E. coli; Escherichia coli, isolate 7 E. coli SHV-12, read-out: MIC): 0.015 µg/mL | MIC (E. coli; Escherichia coli, isolate 8 E. coli SHV-2, read-out: MIC): 16 µg/mL

Molecule: Colistin
MIC (P. aeruginosa; isolate 16 P. aeruginosa Basal MICs): 1 µg/mL | MIC (P. aeruginosa; isolate 17 P. aeruginosa Derepressed AmpC): 0.5 µg/mL | MIC (P. aeruginosa; isolate 18 P. aeruginosa Derepressed AmpC): 1 µg/mL | MIC (P. aeruginosa; isolate 19 P. aeruginosa PER): 1 µg/mL | MIC (P. aeruginosa; isolate 20 P. aeruginosa KPC-2): 1 µg/mL | MIC (P. aeruginosa; isolate 21 P. aeruginosa KPC-2): 2 µg/mL | MIC (K. pneumoniae; isolate 9 K. pneumoniae Basal MICs): 0.25 µg/mL | MIC (K. pneumoniae; isolate 10 K. pneumoniae TEM-4): 0.5 µg/mL | MIC (K. pneumoniae; isolate 11 K. pneumoniae CTX-M-15): 0.25 µg/mL | MIC (K. pneumoniae; isolate 12 K. pneumoniae SHV-12): 0.25 µg/mL | MIC (K. pneumoniae; isolate 13 K. pneumoniae KPC-3): 0.25 µg/mL | MIC (K. pneumoniae; isolate 14 K. pneumoniae KPC-3): 0.25 µg/mL | MIC (K. pneumoniae; isolate 15 K. pneumoniae KPC-2): 0.25 µg/mL | MIC (E. cloacae; isolate 1 E. cloacae Basal MICs): 0.25 µg/mL | MIC (E. cloacae; isolate 2 E. cloacae Derepressed AmpC): 0.25 µg/mL | MIC (E. cloacae; isolate 3 E. cloacae Derepressed AmpC): 0.25 µg/mL | MIC (E. coli; isolate 4 E. coli Basal MICs): 0.25 µg/mL | MIC (E. coli; isolate 5 E. coli CTX-M-15): 0.5 µg/mL | MIC (E. coli; isolate 6 E. coli TEM-4): 0.25 µg/mL | MIC (E. coli; isolate 7 E. coli SHV-12): 0.5 µg/mL | MIC (E. coli; isolate 8 E. coli SHV-2): 0.25 µg/mL
